The nature of data set [1]: Clearance in mouse plasma at 2 mg/kg, iv. Type of data set: ADME, organism-based.
A short description of data set [2]: Half life in mouse at 10 mg/kg, po. Type of data set: ADME, organism-based. The note with it: in vivo.
The subject of data set [3] is Mus musculus. Description: Oral bioavailability in mouse at 10 mg/kg. The data set is classed as ADME, organism-based. Particulars: in vivo.
The nature of data set [4]: Cmax in mouse at 10 mg/kg, po. Type of data set: ADME, organism-based. Also noted: dose 10 mg/kg, route oral. Particulars: in vivo.
Data set [5] in a line: Volume of distribution in mouse at 2 mg/kg, iv. Type of data set: ADME, organism-based. The note with it: in vivo.
Data set [6] in a line: (§1) AUC in mouse at 10 mg/kg, po. The note with it: in vivo. Type of data set: ADME, organism-based.
Data set [7] concerns the target T1, Alkaline phosphatase, tissue-nonspecific isozyme (Homo sapiens, UniProt P05186).
T1 sequence (P05186 whole entry): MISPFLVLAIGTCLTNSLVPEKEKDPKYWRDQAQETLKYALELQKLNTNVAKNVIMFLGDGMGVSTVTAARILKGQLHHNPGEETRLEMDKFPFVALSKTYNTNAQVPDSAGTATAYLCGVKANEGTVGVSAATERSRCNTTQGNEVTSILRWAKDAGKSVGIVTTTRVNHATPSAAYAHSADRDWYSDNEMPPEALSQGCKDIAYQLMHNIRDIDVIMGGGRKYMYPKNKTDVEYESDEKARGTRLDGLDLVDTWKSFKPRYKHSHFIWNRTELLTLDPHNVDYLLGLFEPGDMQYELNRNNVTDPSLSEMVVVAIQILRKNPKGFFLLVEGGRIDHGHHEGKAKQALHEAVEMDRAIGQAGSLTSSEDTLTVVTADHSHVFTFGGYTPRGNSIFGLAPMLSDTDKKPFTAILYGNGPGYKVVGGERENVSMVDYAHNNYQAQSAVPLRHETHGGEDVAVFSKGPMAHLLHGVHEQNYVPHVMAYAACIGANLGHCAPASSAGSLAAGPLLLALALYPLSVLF
Put plainly: Inhibition of TNAP (unknown origin) using PPi as substrate.

The target in data set [8] is T1, Alkaline phosphatase, tissue-nonspecific isozyme. Put plainly: Inhibition of TNAP (unknown origin) in whole blood using pNPP as substrate.
Data set [9] has as its system Mus musculus. The data set is described as §1. The note with it: in vivo. Type of data set: ADME, organism-based.
Data set [10] relates to Mus musculus. Description: In vivo inhibition of TNAP in mouse plasma at 10 mg/kg, po administered as single dose after 8 hrs relative to control. The data set is classed as functional.
Data set [11] deals with Mus musculus. Put plainly: In vivo inhibition of TNAP in mouse plasma at 10 mg/kg, po administered as single dose measured at 24 hrs relative to control. The data set is classed as functional.
Data set [12] concerns the target Intestinal-type alkaline phosphatase (Homo sapiens, UniProt P09923). Description: Inhibition of IAP (unknown origin).
Data set [13] addresses Alkaline phosphatase, placental type (Homo sapiens, UniProt P05187). Description: Inhibition of PLAP (unknown origin).

Results on four molecules are retold here after ChEMBL document CHEMBL4184174 (Bioorg Med Chem Lett, 2018).

A value given as a limit tells only on which side of the number the result lay.

Sequence of Intestinal-type alkaline phosphatase (P09923 whole entry): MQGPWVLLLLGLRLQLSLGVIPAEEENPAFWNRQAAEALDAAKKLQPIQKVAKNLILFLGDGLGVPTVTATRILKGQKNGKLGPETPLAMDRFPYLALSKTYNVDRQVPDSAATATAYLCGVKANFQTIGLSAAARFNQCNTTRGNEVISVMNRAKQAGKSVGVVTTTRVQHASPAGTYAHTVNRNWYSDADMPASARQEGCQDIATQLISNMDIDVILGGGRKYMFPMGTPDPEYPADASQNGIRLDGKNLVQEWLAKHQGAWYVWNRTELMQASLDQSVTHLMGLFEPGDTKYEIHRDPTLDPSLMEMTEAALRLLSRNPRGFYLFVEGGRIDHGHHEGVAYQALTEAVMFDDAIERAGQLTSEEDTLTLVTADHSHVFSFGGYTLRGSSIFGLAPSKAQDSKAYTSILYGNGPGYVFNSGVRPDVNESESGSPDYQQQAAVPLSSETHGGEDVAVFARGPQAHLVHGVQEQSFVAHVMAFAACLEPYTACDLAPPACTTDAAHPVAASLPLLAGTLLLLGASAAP
Sequence of Alkaline phosphatase, placental type (P05187 whole entry): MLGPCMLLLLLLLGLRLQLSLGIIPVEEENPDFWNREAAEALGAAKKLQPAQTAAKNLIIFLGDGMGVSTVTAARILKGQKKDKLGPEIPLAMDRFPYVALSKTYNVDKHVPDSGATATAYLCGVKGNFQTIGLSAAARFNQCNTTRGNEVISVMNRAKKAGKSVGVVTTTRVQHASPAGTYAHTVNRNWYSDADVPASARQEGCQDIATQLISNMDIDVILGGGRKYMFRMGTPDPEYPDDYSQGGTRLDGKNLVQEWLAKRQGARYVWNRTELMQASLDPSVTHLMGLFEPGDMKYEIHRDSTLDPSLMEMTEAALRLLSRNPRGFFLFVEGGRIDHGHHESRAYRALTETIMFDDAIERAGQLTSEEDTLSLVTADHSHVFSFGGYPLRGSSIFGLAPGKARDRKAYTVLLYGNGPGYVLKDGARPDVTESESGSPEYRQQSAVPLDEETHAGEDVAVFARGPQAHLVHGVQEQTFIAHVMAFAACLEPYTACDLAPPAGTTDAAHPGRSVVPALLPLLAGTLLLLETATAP

On to `COc1ccc(F)cc1S(=O)(=O)Nc1cncc(C(N)=O)c1`, for which the clearance in data set [1] was determined as 16.8 mL/min/kg. Moreover, in [2], the half-life was 3.7 h. For the same molecule, the F in the data set on Mus musculus [3] is recorded as more than 100%. The molecule further had a Cmax in data set [4] of 63 µg/mL. In data set [5], this molecule gave a Vd of 0.88 L/kg. Further, the AUC in data set [6] came out at 141 µg·h/mL.

On to `COc1ccc(-c2ccccc2)cc1S(=O)(=O)Nc1cccnc1`, for which the IC50 in data set [7] is 876 nM; in data set [8], more than 20000 nM.

As for `COc1ccc(Br)cc1S(=O)(=O)Nc1cncc(C(N)=O)c1`, in [2], the half-life is 2.2 h. The molecule further registered a F with Mus musculus [3] of 70%. Also, the highest level in data set [4] (Cmax) was 133 µg/mL. Further, the Vd in data set [5] is 0.31 L/kg. The same molecule returned an AUC in the data set on Mus musculus [9] of 603 µg·h/mL.

Turning to `COc1ccc(Cl)cc1S(=O)(=O)Nc1cncc(C(N)=O)c1`, the results for the inhibition in vivo at 10 mg/kg in the data set with Mus musculus [10] and in the data set with Mus musculus [11] were more than 75% and 50%, respectively. For the same molecule, the IC50 in data set [12] is more than 80000 nM; in [8] it was 105 nM; in data set [13], more than 80000 nM. Moreover, the half-life in [2] was 2.3 h. For the same molecule, in the data set with Mus musculus [3], the F is 58%. This molecule also gave a Cmax in data set [4] of 178 µg/mL. Moreover, the distribution volume (Vd) in data set [5] was found to be 1.03 L/kg. Besides, in the data set on Mus musculus [9], the AUC was 848 µg·h/mL.

The clearance is the volume of plasma or blood freed of the substance per unit of time. By half-life is commonly meant the time in which the quantity being followed falls by half. Lower therefore signals fast loss. What is called Cmax is the highest concentration seen after dosing. As usually defined, the Vd is a proportionality between amount in the body and measured concentration, not a real space. A lower Vd goes with little distribution into tissue. Broadly, the AUC is concentration integrated over time. The term IC50 denotes the concentration needed to halve the response being measured. High values mean weaker potency in that assay, low ones greater potency in that assay. In general, inhibition in vivo refers to the relative decrease from the control value, in per cent. A high value points to a strong effect.
